Experiments:
rats [1] = experiment: Antipyretic activity, E. coli suspension as pyrogen; type: in vivo; settings: in °C (unit assumed)
Description: Rats are administered with sterilized E. coli suspension as a pyrogen. Each group of rats are administered with a prodrug compounds or parent compounds at a dosage specified below. The prodrug compounds are administered either orally or transdermally. The parent compounds are administered orally.

mice = experiment: Analgesic activity, acetic acid writhing; type: in vivo; settings: 30 min before acetic acid
Description: The prodrug compounds are administered either transdermally or orally. The parent compounds are administered orally. The number of writhing that occurred when mice are administered the acetic acid solution are counted, and the rate of inhibition based on the control group which was not pretreated with any test compounds is calculated. […] The A group is the control group.

rat = settings: rats
Description: The acute toxicity of the prodrug compounds and parent compounds are measured by LD50 of rat.

[2] = pH 7
human skin tissue = settings: pH 7.4
[3] = Plasma levels after transdermal administration to hairless mice; type: in vivo; settings: mouse, in vivo
Description: Tested compounds (20% solution or suspension in 1 mL isopropanol) are administered transdermally to the skin of intact hairless mice. The plasma levels of the parent compounds are determined by HPLC.

sun damaged skin = experiment: Treatment of sun damaged skin of subjects; type: in vivo; settings: applied to sun damaged skin
From the text: Diethylaminoethyl acetylsalicylate.AcOH is applied to subjects' the sun damaged skin. […] 92% of the subjects treated experienced improved elasticity and firmness, and 95% experienced overall improvement in texture and tone. The results shown that HPPs of aspirin and related compounds may be used to treat skin conditions.

C57/BL6 mice, MPTP [4] = experiment: MPTP Parkinson's disease mice: GSH and MDA in the substantia nigra; type: in vivo, mouse; settings: MPTP + 30 mg/kg transdermally 14 days
From the text: (§1) The mice were divided into 2 groups.

[5] = system: spontaneously hypertensive and stroke prone rats (SLAC/SHRSP); experiment: Anti-stroke activity, carotid thrombosis by electrical stimulation (treated before operation); type: in vivo, rat; settings: 100 mg/kg transdermally 2 hour before and 1 hour after operation, then 50 mg/kg twice per day
Description: (§2) Thrombosis was induced by electrical stimulation (1 mA for 3 minutes) of the carotid artery in spontaneously hypertensive and stroke prone rats (SLAC/SHRSP) by using a thrombosis formation instrument (YLS-14A, Shandong Academy of Medical Sciences, Shandong, China). The rats (Spragu Dawley, 25 weeks old, 380-450 g) were divided into 3 groups randomly, group A is the control group, groups B and C are aspirinamine-treated group. In group B, 100 mg/kg of aspirinamine citric acid salt (10% in water) was applied to the rats' back skin (˜5 cm^2, fur was cut off) 2 hour before the operation and 1 hour after the operation, then 50 mg/kg of the drug was applied to the back of rats twice per day. In group C, 50 mg/kg of aspirinamine was applied to the back of rats twice per day starting from 24 hours after the operation. The recovery of motor functions of rats was evaluated every day. The operation process is outlined in the Method section in the supporting online materials. […] The HPP of aspirin is the first drug which can reverses paralysis from post-stroke.

C57/BL6 mice, MPTP [6] = experiment: MPTP Parkinson's disease mice: DA, NA, 5-HT in the striatum; type: in vivo, mouse
From the text: as §1

C57/BL6 mice, MPTP [7] = experiment: MPTP Parkinson's disease mice: GABA and Glu in substantia nigra and striatum
Description: Group A mice were i.p. injected 0.4% sodium carboxymethylcellulos (15 ml/kg per day) for 7 days. Group B and C mice were i.p. injected N-methyl-4-phenyl-1,2,3,6-tetrahydropyridine (MPTP, 30 mg/kg per day) for 7 days. The mice were divided into 2 groups. […] All mice were killed after the last treatment and the brain tissues were quickly frozen at −80° C. […] The contents of GABA and Glu in the striatum and SN were shown by high performance amino acid auto-analyser.

[8] = system: spontaneously hypertensive and stroke prone rats (SLAC/SHRSP); experiment: Alleviation of the effects of strokes (treatment from 24 hours after operation); type: in vivo, rat; settings: 50 mg/kg twice per day on the back from 24 hours after the operation
Description: as §2

β-amyloid (Aβ) = experiment: Tg2576 mouse model of Alzheimer disease: Aβ and senile plaques; type: in vivo
From the text: For many years, efforts have been focused on the development of inhibitors of β-amyloid (Aβ) formation and its related neurotoxic effects. To determine the effect of diethylaminopropyl acetylsalicylate. HCl on in vivo Aβ accumulation, we administered transdermally diethylaminopropyl acetylsalicylate. […] Three-month-old female transgenic mice overexpressing the human APP gene containing the Swedish mutation that causes familial AD (Tg2576 line) were used for testing the effects of diethylaminopropyl acetylsalicylate.HCl in vivo. 20 Tg2576 mice were divided into 2 groups. […] In group B (n=10), 50 mg/kg of diethylaminopropyl acetylsalicylate.HCl in 0.2 ml of pure water was applied to the back of mouse once per day for 2 months. Then the animals were killed and their brains were removed for analysis. For Aβ analysis, hemibrains were dounce homogenized in 70% formic acid at 150 mg tissue/ml formic acid solution. Homogenates were transferred to a chilled ultracentrifuge and were then spun at 100,000 g for 1 h at 4° C. Supernatants were collected and neutralized with formic acid neutralization buffer (1.0 M Tris base, 0.5 M NaH2PO4, and 0.05% NaN3; 1:20) for Aβ quantitation by ELISA. Aβ40 and Aβ42 were assayed by ELISA. Four individual experiments were performed. To compare across studies, the values for an individual study were normalized using the values obtained for the control animals included in each study. Values represent the mean±SE for the n number shown, after normalizing.

Tg2576 mouse = experiment: Tg2576 mice: radial-arm water-maze test of working memory; type: in vivo; settings: 50 mg/kg, 2 months
Description: To determine if the transdermal administration of diethylaminopropyl acetylsalicylate.HCl has beneficial functional consequences, we tested 2 months of diethylaminopropyl acetylsalicylate.HCl (50 mg/kg) in the transgenic model for Alzheimer's disease in which mice develop learning deficits as amyloid accumulates. […] In the diethylaminopropyl acetylsalicylate.HCl (50 mg/kg) treated group, all mice performed superbly on the radial-arm water-maze test of working memory and untreated transgenic mice show memory deficits. […] This therapeutic approach can thus prevent and treat Alzheimer's dementia.

rats [9] = experiment: Spinal cord injury, recovery from paralysis; type: in vivo, rat; settings: 5 mg in 0.2 ml water on the area of injury twice per day for 1 months
Description: A group of rat was anesthetized with chloral hydrate, the spinal cord of rats was hit to induce spinal cord injury. At the next day, 20 completely paralyzed rats were divided into 2 groups. […] In group B (n=10), 5 mg of diethylaminopropyl acetylsalicylate.HCl in 0.2 ml of pure water was applied to the area of injury (˜2×3 cm^2) twice per day for 1 months. After the treatment, all rats (10/10) in control group (group A) were still completely paralyzed. We were excited to see that all rats (10/10) in the diethylaminopropyl acetylsalicylate.HCl treated group (group B) could walk. 4 Rats of them were completely normal and other 6 rats walked more slowly and less confidently than their injury. This therapeutic approach can treat spinal cord injury in humans and animals.

[10] = MPTP mice, 30 mg/kg transdermally to the neck once per day for 14 days
[11] = MPTP mice, 30 mg/kg transdermally once per day for 14 days
[12] = 50 mg/kg transdermally, 2 months
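For LD50 of HPP in this document: acute toxicity in rats expressed as LD50, determined for both prodrugs and their parent compounds.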

## CCN(CC)CCOC(=O)c1ccccc1OC(C)=O [diethylaminoethyl acetylsalicylate.AcOH]
Rats [1]; 100 mg/kg orally
  body temperature, t = 0 min: 37.25 ± 0.09
  body temperature, t = 90 min: 36.40 ± 0.15
  body temperature, t = 180 min: 36.50 ± 0.09
  body temperature, t = 270 min: 36.40 ± 0.15
Rats [1]; 100 mg/kg transdermally
  body temperature, t = 0 min: 37.19 ± 0.07
  body temperature, t = 90 min: 36.40 ± 0.05
  body temperature, t = 180 min: 36.38 ± 0.05
  body temperature, t = 270 min: 36.40 ± 0.15
Rats [1]; 150 mg/kg orally
  body temperature, t = 0 min: 37.18 ± 0.07
  body temperature, t = 90 min: 36.30 ± 0.15
  body temperature, t = 180 min: 36.28 ± 0.07
  body temperature, t = 270 min: 36.20 ± 0.09
Rats [1]; 150 mg/kg transdermally
  body temperature, t = 0 min: 37.33 ± 0.05
  body temperature, t = 90 min: 36.27 ± 0.15
  body temperature, t = 180 min: 36.26 ± 0.07
  body temperature, t = 270 min: 36.22 ± 0.08
mice; 50 mg/kg orally
  % (rate of writhing inhibition): 54%
  No. of Writhing: 15.4
mice; 50 mg/kg transdermally
  % (rate of writhing inhibition): 56%
  No. of Writhing: 14.5
mice; 100 mg/kg orally
  % (rate of writhing inhibition): 67%
  No. of Writhing: 11.0
mice; 100 mg/kg transdermally
  % (rate of writhing inhibition): 70%
  No. of Writhing: 10.1
rat
  LD50 of HPP: 2300 mg/kg
[2]
  Solubility of HPP: >300 mg/mL
Human skin tissue
  In vitro penetration rate (apparent flux), prodrug compounds: 1000 μg/cm^2/h
[3]
  Peak plasma concentration of parent compound after prodrug compound: 30 mg/L
  t, time to peak plasma level of parent compound after prodrug compound: 20 min
Sun damaged skin
  reduction in roughness: 89%
  reduction in the appearance of fine lines and wrinkles: 85%
  reduction in the look of freckles, moles, dark spots, and other discolorations: 85%
  reduction of acne: 97%
  subjects that experienced overall improvement in texture and tone: 95%
  subjects treated that experienced improved elasticity and firmness: 92%

## CCN(CC)CCOC(=O)c1ccccc1OC(C)=O.O=C(O)CC(O)(CC(=O)O)C(=O)O [diethylaminoethyl acetylsalicylate.citric acid]
C57/BL6 mice, MPTP [4]; control 13 ± 3, MPTP + water 21 ± 4
  MDA in the substantia nigra: 14 ± 4 μmol/g protein
C57/BL6 mice, MPTP [4]; control 152 ± 12, MPTP + water 101 ± 17
  GSH in the substantia nigra: 143 ± 13 μg/g protein
[5]
  Stroke-free rats (2 hours): 8/10
  Stroke-free rats (1 day): 9/10
  Stroke-free rats (7 days): 10/10
C57/BL6 mice, MPTP [6]; 30 mg/kg transdermally, vs MPTP model group, P<0.05
  DA, NA, and 5-HT contents in the striatum: increased
C57/BL6 mice, MPTP [6]; [10]
  5-HT concentration in the striatum: 302 ± 29
  DA concentration in the striatum: 817 ± 89 μg/g wet tissue
  NA concentration in the striatum: 602 ± 55
C57/BL6 mice, MPTP [7]; 30 mg/kg
  MPTP-induced changes of GABA in striatum and SN: reversed
C57/BL6 mice, MPTP [7]; [11]
  GABA concentration, Striatum: 4.9 ± 1.6 μmol/g wet tissue
  GABA concentration, Substantia nigra: 4.7 ± 0.5 μmol/g wet tissue
  Glu concentration, Striatum: 26.5 ± 2.7
  Glu concentration, Substantia nigra: 29.5 ± 2.4
[8]; 3 hrs after operation (before treatment start)
  Stroke-free rats (3 hrs): 0/10
[8]; 2 day
  Stroke-free rats (2 day): 4/10
[8]; 3 days
  Weight Loss (3 days): −13 +/− 7%
[8]; 7 day
  Stroke-free rats (7 day): 9/10
[8]; 7 days
  Weight Loss (7 days): −7 +/− 4%
[8]; 14 days
  Stroke-free rats (14 days): 10/10
  Weight Loss (14 days): −4 +/− 2%

## CCN(CC)CCCOC(=O)c1ccccc1OC(C)=O.Cl [diethylaminopropyl acetylsalicylate.HCl]
β-amyloid (Aβ); 50 mg/kg transdermally over 2 months
  reduction in the number of senile plaques: 70-80%
β-amyloid (Aβ); [12]
  reduction in Aβ42 concentration in the brain: 70%
  reduction of the amount of Aβ detected in the brains: 70%
β-amyloid (Aβ); Tg2576 mice, 50 mg/kg transdermally once per day for 2 months
  Aß42 concentration: 2.3 ± 0.3 pmol/g tissue
Tg2576 mouse
  cognitive performance, radial-arm water-maze test of working memory: performed as well as nontransgenic mice
Rats [9]
  rats completely normal after treatment: 4
  rats that could walk after treatment: 10/10

From patent US20210353579A1, “HIGH PENETRATION COMPOSITIONS AND USES THEREOF” (Techfields Pharma Co., Ltd., priority 2006, published 2021)
